From US9227919B2, “Arylalkylamine compounds as calcium sensing receptor modulators” (Lupin Limited, priority 2012, dated 2016)
Structures can show the parent of a compound that is named as a salt.

Molecular target: T1, Calcium Sensing Receptor (CaSR) (Homo sapiens, UniProt P41180)
T1 construct: expressed in transfected cells
T1 sequence (P41180 20-1078): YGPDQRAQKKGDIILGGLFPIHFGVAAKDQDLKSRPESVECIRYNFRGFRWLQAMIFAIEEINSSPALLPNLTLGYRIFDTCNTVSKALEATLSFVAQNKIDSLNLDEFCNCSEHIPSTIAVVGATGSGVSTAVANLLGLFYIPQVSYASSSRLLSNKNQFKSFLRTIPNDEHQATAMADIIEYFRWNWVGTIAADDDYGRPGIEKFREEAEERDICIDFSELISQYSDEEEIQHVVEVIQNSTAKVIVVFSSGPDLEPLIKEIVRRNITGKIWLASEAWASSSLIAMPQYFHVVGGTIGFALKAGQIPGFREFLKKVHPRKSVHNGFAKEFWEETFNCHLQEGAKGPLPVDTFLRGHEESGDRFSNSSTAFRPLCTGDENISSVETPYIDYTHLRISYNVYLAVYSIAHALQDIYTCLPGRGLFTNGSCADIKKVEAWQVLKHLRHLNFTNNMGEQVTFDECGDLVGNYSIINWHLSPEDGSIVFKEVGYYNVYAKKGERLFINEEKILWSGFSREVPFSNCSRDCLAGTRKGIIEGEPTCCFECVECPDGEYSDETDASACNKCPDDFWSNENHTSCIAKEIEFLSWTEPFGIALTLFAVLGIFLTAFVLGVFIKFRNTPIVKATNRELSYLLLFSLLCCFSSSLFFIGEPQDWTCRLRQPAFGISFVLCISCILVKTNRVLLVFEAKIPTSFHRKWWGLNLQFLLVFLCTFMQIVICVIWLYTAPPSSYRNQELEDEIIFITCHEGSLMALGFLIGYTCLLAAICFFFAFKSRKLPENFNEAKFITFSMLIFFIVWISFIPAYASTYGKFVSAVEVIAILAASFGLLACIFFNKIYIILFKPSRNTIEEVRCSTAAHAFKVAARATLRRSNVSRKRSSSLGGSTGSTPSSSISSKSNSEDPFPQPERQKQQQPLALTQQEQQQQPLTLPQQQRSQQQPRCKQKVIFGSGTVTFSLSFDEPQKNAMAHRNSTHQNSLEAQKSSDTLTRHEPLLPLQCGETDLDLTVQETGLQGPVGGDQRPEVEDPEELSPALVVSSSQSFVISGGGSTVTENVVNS
Assay: In-vitro assay of calcimimetics through modulation of Calcium Sensing Receptor (intracellular calcium increase, FLIPR)
Format: cell-based
Conditions: stably transfected HEK293 cells expressing hCaSR; Fluo4NW dye; 0.3 mM CaCl2; 8-point assay; read-out: EC50 Range
Protocol: Certain illustrative compounds within the scope of the invention are screened for CaSR activity according to the procedure given below. The screening of the compounds may also be carried by other methods and procedures known to skilled in the art.
In-vitro assay method of Calcimimetics through modulation of Calcium Sensing Receptor (CaSR):
The ability of the compounds to modulate Calcium sensing receptor is determined by measuring an increase in intracellular calcium [Ca^2+]i. Stably transfected HEK293 cells expressing hCaSR_pTriEx-3 hygro vector are developed. Cells are grown overnight on a 96-well plate to 80% confluency in Ham's F12 containing 20% FBS at 37° C., 5% CO2. Subsequently, cells are washed extensively with 20 mM HEPES buffer containing 126 mM […], 1 mM MgCl2 and 4 mM KCl to remove serum components that might interfere with the assay. Cells are loaded with calcium sensing Fluo4NW dye in HEPES base buffer containing 0.1% BSA and lmg/ml glucose for 30 minutes to measure changes in intracellular calcium. The activities of the compounds are measured in FLIPR using 0.3 mM CaCl2 in 20 mM HEPES base buffer. The effectiveness of the compound to modulate receptor activity is determined by calculating the EC50 responses for that compound in an 8-point assay and plotted using GraphPad Prism 5.
The compounds prepared were tested using the above assay procedure and the results obtained are given below.

| Structure (SMILES) | EC50 |
| --- | --- |
| Cc1cc(C2CC(N[C@H](C)c3cccc4ccccc34)Cc3ccccc32)ccc1C(=O)O (stereo partly drawn) [Example 23, 2-Methyl-4-(3-(((R)-1-(naphthalen-1-yl)ethyl)amino)-1,2,3,4-tetrahydronaphthalen-1-yl)benzoic acid hydrochloride] | 20 to 50 nM |
| Cc1ccc(C2C[C@H](CN[C@H](C)c3ccc(F)c4ccccc34)Cc3ccccc32)cc1C(=O)O (single isomer, unassigned) [Example 19a, hydrochloride] | < 20 nM |
| Cc1ccc(C2CC(CN[C@H](C)c3cccc4ccccc34)Cc3ccccc32)cc1C(=O)O (single isomer, unassigned) [Example 8d, hydrochloride] | 20 to 50 nM |
| Cc1ccc(N2CC(CN[C@H](C)c3ccc(F)c4ccccc34)Cc3ccccc32)cc1C(=O)O (single isomer, unassigned) [Example 72b, hydrochloride] | 20 to 50 nM |
| Cc1ccc(C2CC(CN[C@H](C)c3cccc4ccccc34)Cc3ccccc32)cc1C(=O)O (single isomer, unassigned) [Example 8b, hydrochloride] | < 20 nM |
| Cc1c(C(=O)O)cccc1N1CC(CCCN[C@H](C)c2ccc(F)c3ccccc23)Cc2ccccc21 (single isomer, unassigned) [Example 79a, hydrochloride] | < 20 nM |
| Cc1cc(C(=O)O)cc(C2CC(CN[C@H](C)c3cccc4ccccc34)Cc3ccccc32)c1 (single isomer, unassigned) [Example 9c, hydrochloride] | 50 to 200 nM |
| Cc1ccc(C2C[C@H](CCN[C@H](C)c3ccc(F)c4ccccc34)Cc3ccccc32)cc1C(=O)O (stereo partly drawn) [Example 25, 5-((3S)-3-(2-(((R)-1-(4-Fluoronaphthalen-1-yl)ethyl)amino)ethyl)-1,2,3,4-tetrahydronaphthalen-1-yl)-2-methylbenzoic acid hydrochloride] | 20 to 50 nM |
| C[C@@H](NCC1Cc2ccccc2C(c2ccc(F)c(C(=O)O)c2)C1)c1cccc2ccccc12 (single isomer, unassigned) [Example 7c, hydrochloride] | 20 to 50 nM |
| Cc1ccc(C2C[C@@H](CCCN[C@H](C)c3cccc4ccccc34)Cc3ccccc32)cc1C(=O)O (stereo partly drawn) [Example 31, 2-Methyl-5-((3R)-3-(3-(((R)-1-(naphthalen-1-yl)ethyl)amino)propyl)-1,2,3,4-tetrahydronaphthalen-1-yl)benzoic acid hydrochloride] | < 20 nM |
| Cc1ccc(N2CC(CN[C@H](C)c3cccc4ccccc34)Cc3cc(F)ccc32)cc1C(=O)O (single isomer, unassigned) [Example 75a, hydrochloride] | < 20 nM |
| Cc1cc(C(=O)O)cc(C2CC(CN[C@H](C)c3cccc4ccccc34)Cc3ccccc32)c1 (single isomer, unassigned) [Example 9b, hydrochloride] | 20 to 50 nM |
| Cc1ccc(C2C[C@H](CCCN[C@H](C)c3ccc(F)c4ccccc34)Cc3ccccc32)cc1C(=O)O (stereo partly drawn) [Example 29, 5-((3S)-3-(3-(((R)-1-(4-fluoronaphthalen-1-yl)ethyl)amino)propyl)-1,2,3,4-tetrahydronaphthalen-1-yl)-2-methylbenzoic acid hydrochloride] | < 20 nM |
| C[C@@H](NCC1Cc2ccccc2C(c2cccc(C(=O)O)c2)C1)c1cccc2ccccc12 (single isomer, unassigned) [Example 2a, hydrochloride] | < 20 nM |
| Cc1ccc(C(=O)O)cc1C1C[C@H](CN[C@H](C)c2cccc3ccccc23)Cc2ccccc21 (single isomer, unassigned) [Example 14b, hydrochloride] | < 20 nM |
| C[C@@H](NCC1Cc2ccccc2C(c2ccc(F)c(C(=O)O)c2)C1)c1cccc2ccccc12 (single isomer, unassigned) [Example 7b, hydrochloride] | < 20 nM |
| Cc1ccc(C(=O)O)cc1C1C[C@H](CN[C@H](C)c2cccc3ccccc23)Cc2ccccc21 (single isomer, unassigned) [Example 14a, hydrochloride] | 50 to 200 nM |
| Cc1ccc(N2CC(CCCN[C@H](C)c3cccc4ccccc34)Cc3ccccc32)cc1C(=O)O (single isomer, unassigned) [Example 78b, hydrochloride] | < 20 nM |

| Structure (SMILES) | EC50 |
| --- | --- |
| Cc1ccc(C(=O)O)cc1N1CC(CN[C@H](C)c2cccc3ccccc23)Cc2ccccc21 (single isomer, unassigned) [Example 70b, hydrochloride] | 50 to 200 nM |
| Cc1ccc(N2CC(CCCN[C@H](C)c3cccc4ccccc34)Cc3ccccc32)cc1OCC(=O)O (single isomer, unassigned) [Example 80b, hydrochloride] | 20 to 50 nM |
| C[C@@H](NCC1Cc2ccccc2C(c2cccc(C(=O)O)c2)C1)c1cccc2ccccc12 (single isomer, unassigned) [Example 2b, hydrochloride] | 50 to 200 nM |
| Cc1ccc(N2CC(CCN[C@H](C)c3cccc4ccccc34)Cc3ccccc32)cc1OCC(=O)O (single isomer, unassigned) [Example 77b, hydrochloride] | < 20 nM |
| Cc1ccc(C2CC(CN[C@H](C)c3cccc4ccccc34)Cc3ccccc32)cc1C(=O)O (single isomer, unassigned) [Example 8c, hydrochloride] | 50 to 200 nM |
| COc1cc([C@@H](C)NC[C@@H]2Cc3ccccc3C(c3ccc(C)c(C(=O)O)c3)C2)ccc1F (single isomer, unassigned) [Example 16b, hydrochloride] | 20 to 50 nM |
| Cc1cc(C2C[C@H](CN[C@H](C)c3cccc4ccccc34)Cc3ccccc32)ccc1C(=O)O (single isomer, unassigned) [Example 13b, hydrochloride] | < 20 nM |
| Cc1ccc(C2CC(N[C@H](C)c3cccc4ccccc34)Cc3ccccc32)cc1C(=O)O (stereo partly drawn) [Example 22, 2-Methyl-5-(3-(((R)-1-(naphthalen-1-yl)ethyl)amino)-1,2,3,4-tetrahydronaphthalen-1-yl)benzoic acid hydrochloride] | 20 to 50 nM |
| Cc1ccc(C2C[C@H](CCN[C@H](C)c3cccc4ccccc34)Cc3ccccc32)cc1C(=O)O (single isomer, unassigned) [Example 27a, hydrochloride] | < 20 nM |
| C[C@@H](NCC1Cc2ccccc2C(c2ccc(F)c(C(=O)O)c2)C1)c1cccc2ccccc12 (single isomer, unassigned) [Example 7a, hydrochloride] | < 20 nM |
| Cc1ccc(N2CC(CN[C@H](C)c3cccc4ccccc34)Cc3ccccc32)c(C)c1C(=O)O (single isomer, unassigned) [Example 71a, hydrochloride] | < 20 nM |
| Cc1ccc(C2CC(CN[C@H](C)c3cccc4ccccc34)Cc3ccccc32)cc1C(=O)O (single isomer, unassigned) [Example 8a, hydrochloride] | < 20 nM |
| Cc1cc(C2C[C@H](CN[C@H](C)c3cccc4ccccc34)Cc3ccccc32)ccc1C(=O)O (single isomer, unassigned) [Example 13a, hydrochloride] | 20 to 50 nM |
| COc1cc([C@@H](C)NCC2Cc3ccccc3N(c3ccc(C)c(C(=O)O)c3)C2)ccc1F (single isomer, unassigned) [Example 73a, hydrochloride] | < 20 nM |
| C[C@@H](NCC1Cc2ccccc2C(c2cccc(C(=O)O)c2)C1)c1cccc2ccccc12 (single isomer, unassigned) [Example 2c, hydrochloride] | 20 to 50 nM |
| COc1cc([C@@H](C)NCC2Cc3ccccc3N(c3ccc(C)c(C(=O)O)c3)C2)ccc1F (single isomer, unassigned) [Example 73b, hydrochloride] | 50 to 200 nM |
| Cc1ccc(C2CC(CN[C@H](C)c3cccc4ccccc34)Cc3ccccc32)c(C)c1C(=O)O (single isomer, unassigned) [Example 10a, hydrochloride] | < 20 nM |
